Measured values: publication PMC5132392, “Identification of a Highly Conserved Hypothetical Protein TON_0340 as a Probable Manganese-Dependent Phosphatase” (PLoS ONE, 2016)

Target: T1, TON_0340 (Thermococcus onnurineus, UniProt B6YTD8)
T1 construct: C-terminal CPD-(His)10 fusion auto-cleaved with phytate; E. coli BL21(DE3) RIPL; assay sample from dissolved crystals, EDTA-treated
T1 sequence (B6YTD8 1-268): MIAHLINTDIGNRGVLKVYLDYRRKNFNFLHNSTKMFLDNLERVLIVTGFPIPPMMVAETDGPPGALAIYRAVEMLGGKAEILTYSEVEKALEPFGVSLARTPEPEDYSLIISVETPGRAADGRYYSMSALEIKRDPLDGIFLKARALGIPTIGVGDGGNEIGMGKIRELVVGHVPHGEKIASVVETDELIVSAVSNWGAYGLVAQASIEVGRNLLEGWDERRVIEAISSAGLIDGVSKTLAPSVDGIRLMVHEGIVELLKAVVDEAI
Assay: inorganic phosphate release (EnzChek / malachite green)
Type: biochemical
Details: 2 mM AMP, 2 mM MnCl2, 100 mM HEPES pH 7.5, 100 mM NaCl, 37°C; Mn2+-dependent

SMILES: Nc1ncnc2c1ncn2[C@@H]1O[C@H](COP(=O)(O)O)[C@@H](O)[C@H]1O [AMP]
- inorganic phosphate release (EnzChek / malachite green): The highest activity was observed with AMP
